# Experimental data published in patent US20250000874A1, “BACTERIAL METABOLITES AND THEIR USE IN REDUCING INFLAMMATION” (LOYOLA UNIVERSITY OF CHICAGO, priority 2023, published 2025).
# “Also recorded” adds a separate entry of the source.
# Columns and labels:
# [1] = system: THP-1 cells; experiment: NC on TNFα release in THP-1 cells in response to TLR agonists; type: cell-based, human; details: 50 μM NC 18 hours
# Description: FIG. 27A and FIG. 27B. Metabolite NC on TNFα release in response to LPS in human and murine macrophages in vitro. Macrophages were plated at a uniform density of 0.2×10^6 cells/mL in 24 well plates. These cells (FIG. 27A) were allowed to adhere, or, in the case of THP-1 cells FIG. 27B), differentiate using PMA. They were then treated for 18 hours with 50 μM of metabolite NC before being stimulated with 0.1 ug of LPS-EK. Supernatant was collected between 4-6 hours after addition of LPS and debris was removed via centrifugation at 1250 rpm for 5 minutes. TNFα was quantified in the supernatant using sandwich ELISA with standards of known concentrations.
# FIG. 28A and FIG. 28B. Metabolite NC on TNFα release in macrophages in response to various TLR agonists. Raw 264.7 cells (FIG. 28A) and THP-1 FIG. 28B) cells were plated at a uniform density of 0.2×10^6 cells per mL and stimulated with various TLR agonists: Pam3CSK4, Poly I:C, LPS, Fla, FSL-1, imiquimod (ImiQ), and ODN-2006. NC reduced TNFα release in response to TLR3 (p<0.0001 via student's t-test for both Raw 264.7 cells and THP-1 cells) and TLR4 agonists in both cell lines.
# To investigate the effects of compound NC, macrophages were stimulated with LPS, an endotoxin associated with gram-negative bacteria. Human and murine macrophage-like cells (THP-1 cells and Raw 264.7 cells, respectively) were plated in 24 well plates at a uniform density of 0.2×10^6 cells/mL. Following 18 hours of pretreatment with 50 μM metabolite NC, they were stimulated with 10 μg/mL of LPS. After 4-6 hours, supernatant was collected and TNFα was quantified using sandwich ELISA. NC reduces TNFα release from both THP-1 and Raw 264.7 macrophage-like cells in response to TLR4 agonist LPS in vitro.
# Metabolite NC reduces inflammation in response to TLR4 agonist LPS. To further investigate the specificity of NC's action in TLR signaling, Raw 264.7 (FIG. 28A) and THP-1 (FIG. 28B) cells were once again plated at a uniform density of 0.2×10^6 cells/mL, treated with 50 μM metabolite NC for 18 hours, and stimulated with agonists for TLR1/2, TLR3, TLR4, TLR5, TLR6/2, TLR7 and TLR9. After 4-6 hours, supernatant was collected and TNFα was quantified via sandwich ELISA.
# [2] = system: macrophages; experiment: NC on other TLR pathways, macrophages (Example 7); type: cell-based; details: PAM3CSK4, Flagellin, Imiquimod, ODN2006; various concentrations
# Description: Once ready, macrophages were then incubated with NC at a concentration of 50 uM overnight. The following day they were treated with P(I:C) at 50 ug/mL, 100 ug/mL, or 200 ug/mL, with LPS at 1 ng/ml or 10 ng/ml, or FSL at a concentration of 20 ng/ml or 50 ng/mL. Samples were treated for 4 hours and then Supernatant was then collected and the concentration of TNFα was then determined via the commercially available ELISA MAX Deluxe kit (Biolegend), with measurements reported in pg/mL.
# Further investigation of NC's impact on TLR signaling involved treating BMDMs with the TLR 4 agonist LPS. Following overnight treatment with NC cells were treated with LPS at a concentration of 1 ng/ml and 10 ng/ml. After 4 hours supernatant was collected and concentration of TNFα was measured via ELISA. […] Additionally, we explored NCs effects on other TLR agonists. […] We investigated NCs effects on various other TLR pathways including: ½ (PAM3CSK4), TLR 5 (Flagellin), TLR 7 (Imiquimod), and TLR 9 (ODN2006).
# [3] = system: NLRP3 inflammasome; experiment: JE on IL-1β production by THP-1 macrophages upon NLRP3 activation; type: cell-based, human
# Description: FIG. 22. The Effect of JE on IL-1β Production by THP-1 Macrophages. THP-1 macrophages were pretreated with JE overnight at 37° C., 5% CO2. The next day, they were primed with LPS at 500 ng/ml for 4 hours then activated with 6.5 μM of nigericin for 30 minutes at 37 C, 5% CO2. Supernatants were collected and IL-1β production with ELISA. Data are presented as mean±SEM (n=6). *p<0.05. One of two experiments is shown.
# FIG. 23. The Effect of JE on IL-1β Production by THP-1 Macrophages: JE was used as a pretreatment when THP-1 macrophages were pretreated with JE overnight at 37° C., 5% CO2. The next day, they were primed with LPS at 500 ng/ml for 4 hours, then activated with 5 mM of ATP for 30 minutes at 37° C., 5% CO2. In the case when JE was used as a treatment, cells were primed with 10 ng/ml of LPS for 4 hours, then JE was added overnight at 37° C., 5% CO2. The following day, macrophages were activated with 5 mM of ATP for an hour. Supernatants were collected and IL-1β production with ELISA. Data are presented as mean±SEM (n=6). **p<0.01. One of two experiments is shown.
# We similarly tested THP-1 cells as described above. […] I collected the supernatant and measured IL-1β by ELISA. […]
smiles,measurement,setting,value
"CCCCCCCCCCCCCCCC(=O)N[C@@H](C(=O)O)[C@H](C)O [NC, N-Palmitoyl-D-Threonine]",TNFα release in response to TLR3 agonist Poly I:C,"[1]; 4-6 hours, ELISA",reduced
same,TNFα release in response to TLR4 agonist LPS,"[1]; LPS, 4-6 hours, ELISA",reduced; also recorded: significantly less
same,TNFα release in the absence of LPS stimulation,[1]; unstimulated,did not increase; also recorded: does not increase
same,TNFα release in response to other TLR agonists,"[1]; TLR1/2, TLR5, TLR6/2, TLR7, TLR9 agonists",did not significantly reduce
same,"cytokine production, other TLR pathways",[2],did not exhibit any significant inhibitory effects
"CC(=O)O[C@@H]1CC[C@H]2[C@H]3CC[C@H]4CC(F)(F)CC[C@]4(C)[C@H]3CC[C@]12C [JE, 3,3-Difluoro-5-alpha-androstan-17-beta-yl acetate]",IL-1β production upon NLRP3 activation,[3]; JE added before priming with LPS (pretreatment overnight),could decrease
same,IL-1β production upon NLRP3 activation,[3]; JE after priming with LPS and before adding ATP,still detected robust production
